In patent publication US8673268B2, “Molecular targets and compounds, and methods to identify the same, useful in the treatment of joint degenerative and inflammatory diseases” (Galapagos N.V., priority 2004, dated 2014):

Experiments:
[1] = test system: MMP1 expression by synovial fibroblasts (SFs); assay: reverse MMP1 assay: MMP1 ELISA on supernatant of SFs activated with TNFα-based trigger; type: cell-based; settings: Homo sapiens, Fibroblast, supernatant collected 48 hours after trigger, FIG. 5, read-out: IC50 for reduction of TNF-based trigger-induced MMP1 expression by SFs
Procedure: A 384-well format ELISA for measurement of MMP1 is developed. Various primary antibodies are tested, as well as various ELISA protocols. The following protocol is developed and validated to measure MMP1 levels in SF supernatant in 384 well plates: white Lumitrac 600 384 well plates (Greiner) are coated with 2 μg/ml anti-MMP1 antibody MAB1346 (Chemicon). The antibody is diluted in buffer 40 (1.21 g Tris base (Sigma), 0.58 g NaCl (Calbiochem) and 5 ml 10% NaN3 (Sigma) in 1 L milliQ water and adjusted to pH 8.5). After overnight incubation at 4° C., plates are washed with PBS (80 g NaCl, 2 g KCl (Sigma), 11.5 g Na2HPO4.7H2O and 2 g KH2PO4 in 10 L milliQ; pH 7.4) and blocked with 100 μl/well Casein buffer (2% Casein (VWR International) in PBS). Next day, casein buffer is removed from ELISA plates and replaced by 50 μl/well EC buffer (4 g casein, 2.13 g Na2HPO4 (Sigma), 2 g bovine albumin (Sigma), 0.69 g NaH2PO4.H2O (Sigma), 0.5 g CHAPS (Roche), 23.3 g NaCl, 4 ml 0.5 M EDTA pH 8 (Invitrogen), 5 ml 10% NaN3 in 1 L milliQ and adjusted to pH 7.0). 0.25 mM DTT (Sigma) are added to the thawed samples plates. After removal of the EC buffer, 20 μl of sample are transferred to the ELISA plates. […] Readout is performed on the Luminoscan Ascent Luminometer (Labsystems) with an integration time of 200 msec or with an Envision reader (Perkin Elmer). […]

rheumatoid arthritis = settings: RA patients, after 24 months treatment; cited from earlier work
TIMP-2 secretion by SFs = assay: TIMP-2 secretion ELISA; type: cell-based, human
Procedure: The secretion of TIMP-2 by SFs is determined to eliminate the factor of general suppression of SF secretory activity by the Ad-siRNAs as the cause of reduced expression of MMP1 in the reverse MMP1 assay. TIMP-2 is a protein that SFs express and secret constitutively. Secretion of TIMP-2 into the SF supernatant is blocked by the addition of BrefeldinA, a small molecule inhibitor of secretion. The level of SF TIMP-2 protein secretion is detected by ELISA. RASF cells are seeded in 96-well gelatin coated plates at 3000 cells/well in 100 μl synovial growth medium. After overnight incubation, cells are infected and incubated for 5 days at 37° C. in a 10% CO2 incubator. […] TIMP2 levels are determined by a standard ELISA assay, essentially as outlined for the MMP1 ELISA. […] After 5 minutes incubation at room temperature in the dark, luminescence is quantified on a luminometer (Luminoscan Ascent).
The procedure described above (plate layout, MOI, method for determination of the cutoff) applied for these experiments is identical to the one described for the toxicity measurements (i.e., a primary test with 12 μl infection volume and a retest with 3, 6, 12 μl infection volumes) differing only in that the cutoff applied in the primary test is determined as the average over all samples minus 2 times standard deviation over all samples. […]

SMILES: C[C@@H]1C[C@H]2[C@@H]3CCC4=CC(=O)C=C[C@]4(C)[C@@]3(F)[C@@H](O)C[C@]2(C)[C@@]1(O)C(=O)CO [dexamethasone]
- IC50 [1]: ~1 nM

SMILES: CN(Cc1cnc2nc(N)nc(N)c2n1)c1ccc(C(=O)N[C@@H](CCC(=O)O)C(=O)O)cc1 [methotrexate]
- patients achieving an ACR50 score (rheumatoid arthritis): 30%

SMILES: C[C@H]1CCC/C=C/[C@@H]2C[C@H](O)C[C@H]2[C@H](O)/C=C/C(=O)O1 [BrefeldinA]
- secretion of TIMP-2 into the SF supernatant (TIMP-2 secretion by SFs): blocked
